One assay deals with T1, adenosine A2 receptor (Rattus norvegicus, UniProt P30543).
T1 construct: Brains were thawed and then kept on ice while the striata were dissected out; tissue Pel-Freez (Rogers, Arkansas); host or cells: rat striatum (membranes)
In words: Adenosine Receptor Binding - A2 Receptor Affinity (RBA2), [3H]NECA displacement in striatal membranes. Conditions: 4 nM [3H]NECA, 50 nM N6-cyclopentyladenosine, 60 minutes at 25°C, read-out: RBA-2 (IC50, A2 receptor affinity). On the procedure: Brains from 200-500 g mixed sex Sprague-Dawley rats were purchased from Pel-Freez (Rogers, Arkansas). Fresh brains from male Long-Evans hooded rats (Blue Spruce Farms, Altamont, NY) gave essentially identical results. Brains were thawed and then kept on ice while the striata were dissected out. Striata were disrupted in 10 vol of ice-cold 50 mM Tris·HCl (pH 7.7 at 25°C, pH 8.26 at 5°C) (Tris) for 30 seconds in a Polytron PT―10 (Brinkmann) at setting 5. The suspension was centrifuged at 50,000 xg for ten minutes, the supernatant discarded, the pellet resuspended in 10 vol ice-cold Tris as above, recentrifuged, resuspended at 1 g/5 ml, and stored in plastic vials at -70°C (stable for at least six months). When needed, tissue was thawed at room temperature, disrupted in a Polytron, and kept on ice until used.
All incubations were for 60 minutes at 25°C in 12 x 75 mm glass tubes containing 1 ml Tris with 5 mg original tissue weight of rat weight of rat striatal membranes, 4 nM [^3H]-N-ethyl adenosine-5'-carboxamide ([^3H]NECA), 50 nM N^s-cyclopentyladenosine (to eliminate A1 receptor binding), 10 mM MgCI2, 0.1 units/ml of adenosine deaminase and 1% dimethylsulfoxide. N^6-Cyclopentyladenosine was dissolved at 10 mM in 0.02 N HCI and diluted in Tris. Stock solutions and dilutions of N^6-cyclopentyladenosine could be stored at -20°C for several months. Test compounds were dissolved at 10 mM in dimethylsulfoxide on the same day as the experiment, and diluted in dimethylsulfoxide to 100x the final incubation concentration. Control incubations received an equal volume (10 µl) of dimethylsulfoxide; the resulting concentration of dimethylsulfoxide had no effect on binding. [^3H]NECA was diluted to 40 nM in Tris. The membrane suspension (5 mg/0.79 ml) contained sufficient MgC12 and adenosine deaminase to give 10 mM and 0.1 units/ml, respectively, final concentration in the incubation. […] After all additions, the rack of tubes was vortexed, and the tubes were then incubated for 60 min at 25°C in a shaking water bath. The rack of tubes was vortexed an additional time halfway through the incubation.
Incubations were terminated by filtration through 2.4 cm GF/B filters under reduced pressure. Each tube was filtered as follows: the contents of the tube were poured onto the filter, 4 ml of ice-cold Tris were added to the tube and the contents poured onto the filter, and the filter was washed twice with 4 ml of ice-cold Tris. The filtration was complete in about 12 seconds. Filters were put in scintillation vials, 8 ml of Formula 947 scintillation fluid added, and the vials left overnight, shaken, and counted in a liquid scintillation counter at 40% efficiency.
Nonspecific binding was defined as binding in the presence of […] N^6-cyclopentyladenosine, and specific binding was defined as total binding minus nonspecific binding. The IC50 was calculated by weighted nonlinear least squares curve-fitting to the mass action equation. [formula] • where Y is cpm bound • T is cpm total binding without drug • S is cpm specific binding without drug • D is the concentration of drug • and K is the IC50 of the drug Weighting factors were calculated under the assumption that the standard deviation was proportional to the predicted value of Y. Nonspecific binding was treated as a very large (infinite) concentration of drug in the computer analysis.

Another assay has as its target T2, adenosine A1 receptor (Rattus norvegicus, UniProt P25099).
T2 construct: Whole brain minus cerebellum and brainstem from male Long Evans rats (150-200 g) was homogenized; from tissue; host or cells: rat whole brain minus cerebellum and brainstem (membrane homogenate)
T2 sequence (P25099 1-326): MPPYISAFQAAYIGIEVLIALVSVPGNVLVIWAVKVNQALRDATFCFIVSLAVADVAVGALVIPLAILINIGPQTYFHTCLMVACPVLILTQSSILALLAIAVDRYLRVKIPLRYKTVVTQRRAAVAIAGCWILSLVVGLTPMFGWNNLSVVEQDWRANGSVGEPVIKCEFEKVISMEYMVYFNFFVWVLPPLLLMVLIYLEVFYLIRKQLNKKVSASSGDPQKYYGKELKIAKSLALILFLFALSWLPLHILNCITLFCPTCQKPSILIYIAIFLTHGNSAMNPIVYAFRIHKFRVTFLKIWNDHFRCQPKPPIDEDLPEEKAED
Briefly: Adenosine Receptor Binding - A1 Receptor Affinity (RBA 1), [3H]-CHA displacement. Particulars: rat whole brain membranes, 1.0 nM [3H]-CHA, one hour at 25°C. The method, then:
Whole brain minus cerebellum and brainstem from male Long Evans rats (150-200 g) was homogenized in 30 volumes of ice-cold 0.05 M Tris-HCI buffer pH 7.7 using a Brinkman Polytron PT-10, (setting number 6 for 20 seconds) and centrifuged for ten minutes at 20,000 x g (Sorvall RC-2), 4°C. The supernatant was discarded, and the pellet was resuspended and centrifuged as before. The pellet was resuspended in 20 ml Tris-HCI buffer containing two International Units/ml of adenosine deaminase (Sigma Type III from calf intestinal mucosa), incubated at 37°C for 30 minutes, then subsequently at 0°C for ten minutes. The homogenate was again centrifuged, and the final pellet was resuspended in ice-cold 0.05 M Tris-HCI buffer pH 7.7 to a concentration of 20 mg/ml original wet tissue weight and used immediately.
Tissue homogenate (10 mg/ml) was incubated in 0.05 M Tris-HCI buffer pH 7.7 containing 1.0 nM [^3H]-N^6-cyclohexyladenosine (^3H]-CHA) with or without test agents in triplicate for one hour at 25°C. Incubation volume was 2 ml. Unbound [^3H]-CHA was separated by rapid filtration under reduced pressure through Whatman glass fiber (GF/B) filters. The filters were rinsed three times with 5 ml of ice cold 0.05 M Tris-HCI buffer pH 7.7. The radio-labele ligand retained on the filter was measured by liquid scintillation spectrophotometry after shaking the filters for one hour or longer on a mechanical shaker in 10 ml of Beckman Ready-Solv HP scintillation cocktail.
Nonspecific binding was defined as the binding which occurred in the presence of 1 mM theophylline. The concentration of test agent which inhibited 50% of the specific binding (IC50) was determined by nonlinear computer curve fit. The Scatchard plot was calculated by linear regression of the line obtained by plotting the amount of radioligand bound (pmoles/gram of tissue) versus
• bound radioligand • free radioligand Since the amount of radioligand bound was a small fraction of the total amount added, free radioligand was defined as the concentration (nM) of radioligand added to the incubation mixture. The Hill coefficient was calculated by linear regression of the line obtained by plotting the log of the bound radioligand vs the log of the • bound radioligand • Bmax - bound radioligand • The maximal number of binding sites (Bmax) was calculated from the Scatchard plot.

T1 sequence (P30543 whole entry): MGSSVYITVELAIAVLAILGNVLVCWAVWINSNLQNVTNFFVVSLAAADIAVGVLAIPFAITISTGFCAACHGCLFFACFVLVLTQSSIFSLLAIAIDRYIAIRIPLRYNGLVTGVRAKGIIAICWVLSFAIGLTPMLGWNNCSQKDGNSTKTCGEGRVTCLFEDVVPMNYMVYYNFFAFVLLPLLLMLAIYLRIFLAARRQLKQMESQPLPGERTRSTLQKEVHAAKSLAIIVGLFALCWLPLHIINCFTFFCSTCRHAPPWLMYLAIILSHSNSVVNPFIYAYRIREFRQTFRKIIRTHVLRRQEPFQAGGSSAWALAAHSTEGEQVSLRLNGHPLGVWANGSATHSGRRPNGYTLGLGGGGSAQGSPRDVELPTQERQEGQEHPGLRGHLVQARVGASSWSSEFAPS

In general, IC50 refers to the concentration that inhibits the measured activity by half. Take `Cc1ccc(C(C)C)c2c1CC(Nc1ncnc3c1ncn3[C@@H]1O[C@H](CO)[C@@H](O)[C@H]1O)CO2` (some centres unmarked) [Example 12, N^6-[8-lsopropyl-5-methyl-3-chromanylamino]adenosine]: the IC50 on adenosine A2 receptor amounted to 1540 nM; at adenosine A1 receptor it was 188 nM.

(Values after patent publication EP0181109B1, “N6-benzopyrano- and benzothiopyrano-adenosines” (WARNER-LAMBERT COMPANY, priority 1984, dated 1986).)
